PubChem BioAssay AID1117275 (Broad Institute, 2014)
The source made the active and inactive calls. How the calls were made is not given here.

Test system: orthopoxvirus-infected cells, imaging factories/early/late reporters
Experiment: orthopoxvirus gene expression and factory inhibitors, imaging, high MOI, single point, dry powder (AID 1117275)
Conditions: at 10 µM; active compounds read high

SMILES | late gene expression activity score
C[C@@H](O)C#Cc1ccc2c(c1)O[C@@H](CN(C)Cc1ccc(-c3ccccc3Cl)cc1)[C@@H](C)CN([C@@H](C)CO)S2(=O)=O | 71
Cc1ccccc1-c1ccc(CN(C)C[C@@H]2Oc3cc(C#C[C@@H](C)O)ccc3S(=O)(=O)N([C@@H](C)CO)C[C@@H]2C)cc1 | 67
C[C@@H](O)C#Cc1ccc2c(c1)O[C@@H](CN(C)S(=O)(=O)c1ccc(-c3ccccc3)cc1)[C@@H](C)CN([C@@H](C)CO)S2(=O)=O | 86
Cc1ccc(-c2ccc(CN(C)C[C@@H]3Oc4cc(C#C[C@@H](C)O)ccc4S(=O)(=O)N([C@@H](C)CO)C[C@@H]3C)cc2)cc1 | 73
Cc1cccc(-c2ccc(CN(C)C[C@@H]3Oc4cc(C#C[C@@H](C)O)ccc4S(=O)(=O)N([C@@H](C)CO)C[C@@H]3C)cc2)c1 | 78
C[C@@H](O)C#Cc1ccc2c(c1)O[C@@H](CN(C)Cc1ccc(-c3ccccc3)cc1)[C@@H](C)CN([C@@H](C)CO)S2(=O)=O | 17 (inactive)
